Literature values, collected in patent US10214591B1, “Monoclonal antibody to human line-1 ORF2 protein and method for early detection of transforming cells in pre-neoplastic tissues of a human subject” (Alienor Farma, priority 2015, dated 2019).

Key:
[1] = test system: tumorigenic cell lines
[2] = test system: human tumorigenic cells; conditions: xenografted mice

Row | SMILES | effect on proliferation and differentiation of cancer cells [1] | effect on tumor progression [2]
1 | O=C1Nc2ccc(Cl)cc2[C@@](C#CC2CC2)(C(F)(F)F)O1 [efavirenz, (S)-6-Chloro-4-(cyclopropylethynyl)-1,4-dihydro-4-(trifluoromethyl)-2H-3,1 benzoxazin-2-one] | reduced proliferation and enhanced differentiation | arrest, or a significant reduction, of tumor progression
2 | Cc1ccnc2c1NC(=O)c1cccnc1N2C1CC1 [nevirapine] | reduced proliferation and enhanced differentiation | –
